Data: patent US20240368104A1, “Novel Dialkoxynaphtho[2,3-C]Furan-1(3H)-One Derivatives and Pharmaceutical Composition For Preventing or Treating Respiratory Disease or SARS-COV-2 Infection Disease, Comprising Same” (priority 2021, published 2024)
Where a name gives a salt, the structure may show the parent alone. Read-outs that look alike come from different tables or passages of the source.

Assays:
in vitro = details: African green monkey
SARS-COV-2 = assay: microbe, parasite or virus in culture; type: cell-based; design: SI (Selectivity Index, CC50/IC50): unit not given here; details: for SI (Selectivity Index, CC50/IC50): SARS-COV-2, values >50 assumed to be 50; for IC50: read-out: SARS-COV-2 inhibition (IC50)
[1] = Severe acute respiratory syndrome coronavirus 2, Vero cells, 24 hours infection
[2] = Severe acute respiratory syndrome coronavirus 2, Vero, 24 h

COc1cc2cc3c(c(-c4ccc5c(O)ccnc5c4C)c2cc1OC)C(=O)OC3 [Example 154, 9-(4-hydroxy-8-methylquinolin-7-yl)-6,7-dimethoxynaphtho[2,3-c]furan-1(3H)-one]
CC50 (in vitro): > 50 µM | SI (Selectivity Index, CC50/IC50) (SARS-COV-2): 1.0 | IC50 (SARS-COV-2; [1]): > 50 µM

COc1cc2cc3c(c(-c4cccc5ncccc45)c2cc1OC)C(=O)OC3 [Example 132, 6,7-dimethoxy-9-(quinolin-5-yl)naphtho[2,3-c]furan-1(3H)-one]
CC50 (in vitro): > 50 µM | SI (Selectivity Index, CC50/IC50) (SARS-COV-2): 1.0 | IC50 (SARS-COV-2; [1]): > 50 µM

COc1cc2cc3c(c(N4CCN(c5ccc(Br)cn5)CC4)c2cc1OC)C(=O)OC3 [Example 129, 9-(4-(5-bromopyridin-2-yl)piperazin-1-yl)-6,7-dimethoxynaphtho[2,3-c]furan-1(3H)-one]
CC50 (in vitro): > 50 µM | SI (Selectivity Index, CC50/IC50) (SARS-COV-2): 2.29 | IC50 (SARS-COV-2; [1]): 21.8 µM

COc1cc2cc3c(c(-c4ccc(N(C)C(C)C)nc4)c2cc1OC)C(=O)OC3 [Example 188, 9-(6-(isopropyl(methyl)amino)pyridin-3-yl)-6,7-dimethoxynaphtho[2,3-c]furan-1(3H)-one]
CC50 (in vitro): > 50 µM | SI (Selectivity Index, CC50/IC50) (SARS-COV-2): 1418.97 | IC50 (SARS-COV-2; [1]): 0.04 µM

COc1cc2cc3c(c(-c4ccc(N5CCCC(c6cccc(C)c6)C5)nc4)c2cc1OC)C(=O)OC3 (centres unmarked) [Example 202, 6,7-dimethoxy-9-(6-(3-(m-tolyl)piperidin-1-yl)pyridin-3-yl)naphtho[2,3-c]furan-1(3H)-one]
CC50 (in vitro): 38.4 µM | SI (Selectivity Index, CC50/IC50) (SARS-COV-2): 38.01 | IC50 (SARS-COV-2; [1]): 1.01 µM

COc1cc2cc3c(c(-c4ccc(N(C)C(=O)c5ccc(Cl)nc5)nc4)c2cc1OC)C(=O)OC3.Cl [Example 234, 6-chloro-N-(5-(6,7-dimethoxy-3-oxo-1,3-dihydronaphtho[2,3-c]furan-4-yl)pyridin-2-yl)-N-methylnicotinamide]
CC50 (in vitro): > 50 µM | SI (Selectivity Index, CC50/IC50) (SARS-COV-2): 1.00 | IC50 (SARS-COV-2; [2]): > 50 µM

COc1cc2cc3c(c(-c4ccc(N(C)CC5CC5)nc4)c2cc1OC)C(=O)OC3.Cl [Example 183, 9-(6-((cyclopropylmethyl)(methyl)amino)pyridin-3-yl)-6,7-dimethoxynaphtho[2,3-c]furan-1(3H)-one]
CC50 (in vitro): > 50 µM | SI (Selectivity Index, CC50/IC50) (SARS-COV-2): 124.83 | IC50 (SARS-COV-2; [2]): 0.4 µM

COc1cc2cc3c(c(-c4ccc(Cl)nc4)c2cc1OC)C(=O)OC3 [Example 185, 9-(6-chloropyridin-3-yl)-6,7-dimethoxynaphtho[2,3-c]furan-1(3H)-one]
CC50 (in vitro): > 50 µM | SI (Selectivity Index, CC50/IC50) (SARS-COV-2): 149.26 | IC50 (SARS-COV-2; [1]): 0.33 µM

COc1cc2cc3c(c(-c4ccc(N(C)C)c([N+](=O)[O-])c4)c2cc1OC)C(=O)OC3.Cl [Example 217, 9-(4-(dimethylamino)-3-nitrophenyl)-6,7-dimethoxynaphtho[2,3-c]furan-1(3H)-one]
CC50 (in vitro): > 50 µM | SI (Selectivity Index, CC50/IC50) (SARS-COV-2): 10.06 | IC50 (SARS-COV-2; [2]): 4.97 µM

COCCN(C)C(=O)[C@@H]1CCCN1c1ncc(-c2c3c(cc4cc(OC)c(OC)cc24)COC3=O)cn1 [Example 33, (S)-1-(5-(6,7-dimethoxy-3-oxo-1,3-dihydronaphtho[2,3-c]furan-4-yl)pyrimidin-2-yl)-N-(2-methoxyethyl)-N-methylpyrrolidin-2-carboxamide]
CC50 (in vitro): > 50 µM | SI (Selectivity Index, CC50/IC50) (SARS-COV-2): 1.00 | IC50 (SARS-COV-2; [1]): > 50 µM

COc1cc2cc3c(c(-c4cnc(N5CCOCC5)nc4)c2cc1OC)C(=O)OC3 [Example 51, 6,7-dimethoxy-9-(2-morpholinopyrimidin-5-yl)naphtho[2,3-c]furan-1(3H)-one]
CC50 (in vitro): > 50 µM | SI (Selectivity Index, CC50/IC50) (SARS-COV-2): 34.12 | IC50 (SARS-COV-2; [1]): 1.47 µM

COc1cc2cc3c(c(-c4cnc(N(C)Cc5ccc(C)o5)nc4)c2cc1OC)C(=O)OC3 [Example 103, 6,7-dimethoxy-9-(2-(methyl((5-methylfuran-2-yl)methyl)amino)pyrimidin-5-yl)naphtho[2,3-c]furan-1(3H)-one hydrochloride]
CC50 (in vitro): > 50 µM | SI (Selectivity Index, CC50/IC50) (SARS-COV-2): 175.17 | IC50 (SARS-COV-2; [2]): 0.29 µM

COc1cc2cc3c(c(-c4cc5c(cc4OC(=O)C(N)C(C)C)OCO5)c2cc1OC)C(=O)OC3.Cl (stereo in doubt) [Example 269, 6-(6,7-dimethoxy-3-oxo-1,3-dihydronaphtho[2,3-c]furan-4-yl)benzo[d][1,3]dioxol-5-yl L-valinate hydrochloride]
CC50 (in vitro): > 50 µM | SI (Selectivity Index, CC50/IC50) (SARS-COV-2): 94.66 | IC50 (SARS-COV-2; [2]): 0.53 µM

CCOP(=O)(OCC)Oc1cc2c(cc1-c1c3c(cc4cc(OC)c(OC)cc14)COC3=O)OCO2 [Example 277, 6-(6,7-dimethoxy-3-oxo-1,3-dihydronaphtho[2,3-c]furan-4-yl)benzo[d][1,3]dioxol-5-yl diethyl phosphate]
CC50 (in vitro): > 50 µM | SI (Selectivity Index, CC50/IC50) (SARS-COV-2): 1.00 | IC50 (SARS-COV-2; [2]): > 50 µM

COc1cc2cc3c(c(-c4cc5c(cc4OC(=O)c4ccncc4)OCO5)c2cc1OC)C(=O)OC3 [Example 271, 6-(6,7-dimethoxy-3-oxo-1,3-dihydronaphtho[2,3-c]furan-4-yl)benzo[d][1,3]dioxol-5-yl isonicoinate]
CC50 (in vitro): > 50 µM | SI (Selectivity Index, CC50/IC50) (SARS-COV-2): 34.41 | IC50 (SARS-COV-2; [1]): 1.45 µM

COc1cc2cc3c(c(-c4ccc(N(C)CC(OC)OC)nc4)c2cc1OC)C(=O)OC3 [Example 162, 9-(6-((2,2-dimethoxyethyl)(methyl)amino)pyridin-3-yl)-6,7-dimethoxynaphtho[2,3-c]furan-1(3H)-one]
CC50 (in vitro): > 50 µM | SI (Selectivity Index, CC50/IC50) (SARS-COV-2): 11.63 | IC50 (SARS-COV-2; [1]): 4.3 µM

COc1ccc2c(-c3c4c(cc5cc(OC)c(OC)cc35)COC4=O)ccnc2c1 [Example 150, 6,7-dimethoxy-9-(7-methoxyquinolin-4-yl)naphtho[2,3-c]furan-1(3H)-one]
CC50 (in vitro): > 50 µM | SI (Selectivity Index, CC50/IC50) (SARS-COV-2): 1.0 | IC50 (SARS-COV-2; [1]): > 50 µM

COc1cc2cc3c(c(-c4ccc(N(C)C5CC5)nc4)c2cc1OC)C(=O)OC3 [Example 171, 9-(6-(cyclopropyl(methyl)amino)pyridin-3-yl)-6,7-dimethoxynaphtho[2,3-c]furan-1(3H)-one]
CC50 (in vitro): > 50 µM | SI (Selectivity Index, CC50/IC50) (SARS-COV-2): 885.42 | IC50 (SARS-COV-2; [1]): 0.06 µM

COc1cc2cc3c(c(-c4cccc5cccnc45)c2cc1OC)C(=O)OC3 [Example 125, 6,7-dimethoxy-9-(quinolin-8-yl)naphtho[2,3-c]furan-1(3H)-one]
CC50 (in vitro): > 50 µM | SI (Selectivity Index, CC50/IC50) (SARS-COV-2): 1.0 | IC50 (SARS-COV-2; [1]): > 50 µM

COc1cc2c(OC)c3c(c(-c4ccc(N5CCC6(CC5)OCCO6)nc4)c2cc1OC)COC3=O [Example 260, 4-(6-(1,4-dioxa-8-azaspiro[4.5]decan-8-yl)pyridin-3-yl)-6,7,9-trimethoxynaphtho[2,3-c]furan-1(3H)-one]
CC50 (in vitro): > 50 µM | SI (Selectivity Index, CC50/IC50) (SARS-COV-2): 1.00 | IC50 (SARS-COV-2; [1]): > 50 µM

COc1cc2cc3c(c(-c4ccnc5c(OC)cccc45)c2cc1OC)C(=O)OC3 [Example 140, 6,7-dimethoxy-9-(8-methoxyquinolin-4-yl)naphtho[2,3-c]furan-1(3H)-one]
CC50 (in vitro): > 50 µM | SI (Selectivity Index, CC50/IC50) (SARS-COV-2): 1.0 | IC50 (SARS-COV-2; [1]): > 50 µM

COc1cc2cc3c(c(-c4cnc(N5CCCC(O)C5)nc4)c2cc1OC)C(=O)OC3.Cl (centres unmarked) [Example 80, 9-(2-(3-hydroxyperidin-1-ylpyrimidin-5-yl)-6,7-dimethoxynaphtho[2,3-c]furan-1(3H)-one hydrochloride]
CC50 (in vitro): > 50 µM | IC50 (SARS-COV-2; [2]): 11.9 µM
